According to US10421782B2, “Cyclic cationic peptides with antimicrobial activity” (I.C.F. S.R.L., priority 2012, dated 2019):
In brackets after ≈: the same amount, converted by molar mass. Read-outs that look alike come from different tables or passages of the source. Where a SMILES comes first, the peptide text is derived from it. Bridges are numbered along the chain shown (N, C = ends).

Key:
[1] = test system: Pseudomonas aeruginosa ATCC 27853; type: cell-based
Protocol: (§1) For each bacterial strain, 3-5 morphologically similar colonies were drawn from fresh cultures, inoculated in Brain Hearth Infusion broth liquid medium and incubated at the temperature of 37° C. under shaking at 225 r.p.m. for 3-4 h. Subsequently, the bacterial suspension was centrifuged at 1000 g for 20 min and the thus obtained pellet was resuspended in phosphate buffer 10 mM. Turbidity was measured in a spectrophotometer with absorbance at 600 nm, equivalent in the range 0.08-0.13 to a concentration of about 10^8 CFU/ml. The bacterial suspension was diluted 1:100 in phosphate buffer 10 mM, and within 30 min 50 microliters of such bacterial suspension (10^6 CFU/ml) were inoculated in each well of the microtiter plate, to obtain a final bacterial concentration of about 5×10^5 CFU/ml.
(§2) Several peptides were tested for their ability to inhibit bacterial growth in liquid culture. Fifty microliters of peptide at a concentration comprised between about 0.2 mM and 50 mM were added in 96-well U-bottom plates containing liquid growth medium and one of the following bacteria: Escherichia coli ATCC 25922, P. aeruginosa ATCC 27853, Stenotrophomonas maltophilia ATCC 13637. After 2 hour incubation at 37° C., bacteria were transferred on a solid medium. As a growth control, bacterial cultures were cultured in the absence of peptides.
(§3) The bacterial suspension was put in contact for two hours with different concentrations of the peptide at the temperature of 37° C. After incubation, 20 μl were drawn from the wells of each dilution and seeded on solid medium, agar McConkey. The inoculum was evenly distributed on the agarized medium by means of a sterile disposable loop. After incubation for 24 h at the temperature of 37° C., counting of the bacterial colonies (CFU) was performed.

[2] = test system: Escherichia coli ATCC 25922; type: cell-based
Protocol: as §1, §2, §3

[3] = further tests, test of Table 2a

Molecule | MBC P. aeruginosa ATCC 27853 ([1]; ATCC 27853) | MBC E. coli ATCC 25922 ([2]; ATCC 25922) | MBC P. aeruginosa ATCC 27853 [1, 3] | MBC E. coli ATCC 25922 [2, 3]
CC[C@H](C)[C@H](NC(=O)[C@H](C)N)C(=O)N[C@H]1CSSC[C@@H](C(=O)N[C@@H](CCCCN)C(=O)O)NC(=O)[C@H](C)NC(=O)[C@H](CCCCN)NC(=O)[C@H](Cc2c[nH]c3ccccc23)NC(=O)[C@H](CCCCN)NC(=O)[C@H](Cc2c[nH]cn2)NC(=O)CNC(=O)[C@H](CCCNC(=N)N)NC(=O)[C@H](Cc2ccc(O)cc2)NC(=O)[C@H](CCCCN)NC(=O)[C@H](Cc2c[nH]c3ccccc23)NC(=O)[C@H]([C@@H](C)O)NC(=O)[C@H](CCCNC(=N)N)NC1=O [SEQ.ID.NO.: 4, Ala*Ile*Cys*Arg*Thr*Trp*Lys*Tyr*Arg*Gly*His*Lys*Trp*Lys*Ala*Cys*Lys*] (H-AICRTWKYRGHKWKACK-OH; disulfide 3-16; N-terminus and C-terminus assumed) | 1.14 µg/mL (≈ 0.534 µM) | 17.37 µg/mL (≈ 8.14 µM) |  | 
N=C(N)NCCC[C@@H]1NC(=O)[C@H](Cc2ccccc2)NC(=O)[C@H](CCCNC(=N)N)NC(=O)[C@H](Cc2ccc(O)cc2)NC(=O)[C@@H]2CCCN2C(=O)[C@H](Cc2ccccc2)NC(=O)[C@@H](NC(=O)[C@H](CCCCN)NC(=O)[C@@H](N)CCCNC(=N)N)CSSC[C@@H](C(=O)N[C@@H](Cc2ccc(O)cc2)C(=O)O)NC(=O)[C@H](CCCCN)NC(=O)[C@H](CCCCN)NC(=O)[C@H](Cc2ccccc2)NC(=O)[C@H](CCCNC(=N)N)NC(=O)[C@H](CCCCN)NC(=O)CNC1=O [SEQ.ID.NO.: 5, Arg*Lys*Cys*Phe*Pro*Tyr*Arg*Phe*Arg*Gly*Lys*Arg*Phe*Lys*Lys*Cys*Tyr*] (H-RKCFPYRFRGKRFKKCY-OH; disulfide 3-16; N-terminus and C-terminus assumed) | 1.09 µg/mL (≈ 0.478 µM) | 1.08 µg/mL (≈ 0.473 µM) |  | 
C[C@@H](O)[C@@H]1NC(=O)[C@H](Cc2ccccc2)NC(=O)[C@@H](NC(=O)[C@H](CCCCN)NC(=O)[C@@H](N)CCCCN)CSSC[C@@H](C(=O)NCC(=O)O)NC(=O)[C@H](CCCCN)NC(=O)[C@H](CCCNC(=N)N)NC(=O)[C@H](Cc2ccc(O)cc2)NC(=O)[C@H](CC(N)=O)NC(=O)[C@H](CCCCN)NC(=O)CNC(=O)[C@H](CCCNC(=N)N)NC(=O)[C@H](Cc2c[nH]c3ccccc23)NC(=O)[C@H](CCCCN)NC(=O)[C@H](Cc2c[nH]c3ccccc23)NC1=O [SEQ.ID.NO.: 6, Lys*Lys*Cys*Phe*Thr*Trp*Lys*Trp*Arg*Gly*Lys*Asn*Tyr*Arg*Lys*Cys*Gly*] (H-KKCFTWKWRGKNYRKCG-OH; disulfide 3-16; N-terminus and C-terminus assumed) | 0.4 µg/mL (≈ 0.183 µM) | 1.81 µg/mL (≈ 0.827 µM) |  | 
CC(C)C[C@H](NC(=O)[C@@H]1CSSC[C@H](NC(=O)CNC(=O)[C@@H](N)CCCNC(=N)N)C(=O)N[C@@H](Cc2c[nH]c3ccccc23)C(=O)N[C@@H](CCCNC(=N)N)C(=O)N[C@@H](Cc2c[nH]c3ccccc23)C(=O)N[C@@H](CCCCN)C(=O)N[C@@H](Cc2c[nH]c3ccccc23)C(=O)N[C@@H](CCCNC(=N)N)C(=O)NCC(=O)N[C@@H](C(C)C)C(=O)N[C@@H](Cc2c[nH]c3ccccc23)C(=O)N[C@@H](Cc2ccc(O)cc2)C(=O)N[C@@H](CCCCN)C(=O)N[C@@H](CCCCN)C(=O)N1)C(=O)O [SEQ.ID.NO.: 7, Arg*Gly*Cys*Trp*Arg*Trp*Lys*Trp*Arg*Gly*Val*Trp*Tyr*Lys*Lys*Cys*Leu*] (H-RGCWRWKWRGVWYKKCL-OH; disulfide 3-16; N-terminus and C-terminus assumed) | 3.4 µg/mL (≈ 1.47 µM) | 7.81 µg/mL (≈ 3.38 µM) |  | 
CC(C)C[C@H](NC(=O)[C@@H]1CSSC[C@H](NC(=O)[C@H](CCCCN)NC(=O)CN)C(=O)N[C@@H](Cc2c[nH]c3ccccc23)C(=O)N[C@@H](CCCCN)C(=O)N[C@@H](Cc2c[nH]c3ccccc23)C(=O)N[C@@H](CCCCN)C(=O)N[C@@H](Cc2ccc(O)cc2)C(=O)N[C@@H](CCCNC(=N)N)C(=O)NCC(=O)N[C@@H](Cc2c[nH]cn2)C(=O)N[C@@H](Cc2ccc(O)cc2)C(=O)N[C@@H](Cc2c[nH]c3ccccc23)C(=O)N[C@@H](CCCNC(=N)N)C(=O)N[C@@H]([C@@H](C)O)C(=O)N1)C(=O)O [SEQ.ID.NO.: 8, Gly*Lys*Cys*Trp*Lys*Trp*Lys*Tyr*Arg*Gly*His*Tyr*Trp*Arg*Thr*Cys*Leu*] (H-GKCWKWKYRGHYWRTCL-OH; disulfide 3-16; N-terminus and C-terminus assumed) | 1.81 µg/mL (≈ 0.797 µM) | 9.26 µg/mL (≈ 4.08 µM) |  | 
CC[C@H](C)[C@@H]1NC(=O)CNC(=O)[C@H](CCCNC(=N)N)NC(=O)[C@H](Cc2c[nH]c3ccccc23)NC(=O)[C@H](CCCCN)NC(=O)[C@H](Cc2c[nH]c3ccccc23)NC(=O)[C@H](CCCCN)NC(=O)[C@H](CC(C)C)NC(=O)[C@@H](NC(=O)[C@H](CC(N)=O)NC(=O)[C@@H](N)CCCCN)CSSC[C@@H](C(=O)N[C@@H](CC(C)C)C(=O)O)NC(=O)[C@H](CCCCN)NC(=O)[C@H](CCCNC(=N)N)NC(=O)[C@H](Cc2ccc(O)cc2)NC(=O)[C@H]([C@@H](C)O)NC1=O [SEQ.ID.NO.: 9, Lys*Asn*Cys*Leu*Lys*Trp*Lys*Trp*Arg*Gly*Ile*Thr*Tyr*Arg*Lys*Cys*Leu*] (H-KNCLKWKWRGITYRKCL-OH; disulfide 3-16; N-terminus and C-terminus assumed) | 2.57 µg/mL (≈ 1.17 µM) | 7.56 µg/mL (≈ 3.44 µM) |  | 
CC[C@H](C)[C@H](N)C(=O)N[C@@H](CCCNC(=N)N)C(=O)N[C@H]1CSSC[C@@H](C(=O)N[C@@H](CC(C)C)C(=O)O)NC(=O)[C@H](CCCCN)NC(=O)[C@H](CCCCN)NC(=O)[C@H](Cc2c[nH]c3ccccc23)NC(=O)[C@H](CCC(N)=O)NC(=O)[C@H](Cc2c[nH]cn2)NC(=O)CNC(=O)[C@H](CCCNC(=N)N)NC(=O)[C@H](Cc2ccc(O)cc2)NC(=O)[C@H](CC(N)=O)NC(=O)[C@H](Cc2c[nH]c3ccccc23)NC(=O)[C@H]([C@@H](C)O)NC(=O)[C@H](C)NC1=O [SEQ.ID.NO.: 10, Ile*Arg*Cys*Ala*Thr*Trp*Asn*Tyr*Arg*Gly*His*Gln*Trp*Lys*Lys*Cys*Leu*] (H-IRCATWNYRGHQWKKCL-OH; disulfide 3-16; N-terminus and C-terminus assumed) | 12.08 µg/mL (≈ 5.59 µM) | 24.6 µg/mL (≈ 11.4 µM) |  | 
CC[C@H](C)[C@@H]1NC(=O)CNC(=O)[C@H](CCCNC(=N)N)NC(=O)[C@H](Cc2c[nH]c3ccccc23)NC(=O)[C@H]([C@@H](C)O)NC(=O)[C@H](Cc2c[nH]c3ccccc23)NC(=O)[C@H](CCCCN)NC(=O)[C@H](CC(C)C)NC(=O)[C@@H](NC(=O)[C@H](CC(N)=O)NC(=O)[C@@H](N)CCCNC(=N)N)CSSC[C@@H](C(=O)N[C@@H](CCCCN)C(=O)O)NC(=O)[C@H](CCCCN)NC(=O)[C@H](CC(C)C)NC(=O)[C@H](Cc2ccc(O)cc2)NC(=O)[C@H]([C@@H](C)O)NC1=O [SEQ.ID.NO.: 22, Arg*Asn*Cys*Leu*Lys*Trp*Thr*Trp*Arg*Gly*Ile*Thr*Tyr*Leu*Lys*Cys*Lys*] (H-RNCLKWTWRGITYLKCK-OH; disulfide 3-16; N-terminus and C-terminus assumed) |  |  | 1.08 µg/mL (≈ 0.498 µM) | 11.72 µg/mL (≈ 5.41 µM)
AKCRPLHTRGKQSAVCV [Peptide P14, reference compound] |  |  | inactive | inactive
ANCWTRKIRGVVGVSCG [Peptide P195, reference compound] |  |  | inactive | inactive
FFCGNKRWRGNYQGSCK [Peptide P127, reference compound] |  |  | inactive | inactive
